These results are taken from patent US6372297B1, “Wood preservative oxathiazines” (Uniroyal Chemical Company, Inc., priority 1993, dated 2002).

The structures appear in SMILES notation. Like-named read-outs stand apart in the source and are kept apart here.

The test system of experiment [1] is Pseudomonas aeruginosa. Description: Wood preservative efficacy against bacteria and yeasts, tryptose agar plates. The format is cell-based. On the set-up: key: 0 = growth equal to control, 1 = growth inhibited, 2 = no growth. Conditions: 100 ppm in tryptose agar. The procedure:
Compositions were prepared by dissolving the compounds shown in Table 1 in 50% ethanol and further diluting with sterile distilled water. […] After cooling, the medium was inoculated with the bacteria listed below. After sufficient growth of the untreated cultures, the compounds were evaluated using the following rating system: 0=growth equal to control 1=inhibition of growth by the compound 2=no growth under the influence of the compound. In this Table, the higher numbers are the most preferred species. Pseudomonas aeruginosa (gram neg)

The test system of experiment [2] is Flavobacterium sp. Described as above. Further details: key: 0 = growth equal to control, 1 = growth inhibited, 2 = no growth. Conditions: 100 ppm in tryptose agar. It is filed as cell-based. The procedure:
Compositions were prepared by dissolving the compounds shown in Table 1 in 50% ethanol and further diluting with sterile distilled water. […] After cooling, the medium was inoculated with the bacteria listed below. After sufficient growth of the untreated cultures, the compounds were evaluated using the following rating system: 0=growth equal to control 1=inhibition of growth by the compound 2=no growth under the influence of the compound. In this Table, the higher numbers are the most preferred species. Flavobacterium sp. (gram neg)

Experiment [3] has as its system Pseudomonas alcaligenes. Described as above. It is filed as cell-based. On the set-up: key: 0 = growth equal to control, 1 = inhibition, 2 = no growth. The note with it: 100 ppm in tryptose agar. The procedure: Compositions were prepared by dissolving the compounds shown in Table 1 in 50% ethanol and further diluting with sterile distilled water. […] After cooling, the medium was inoculated with the bacteria listed below. After sufficient growth of the untreated cultures, the compounds were evaluated using the following rating system: 0=growth equal to control 1=inhibition of growth by the compound 2=no growth under the influence of the compound. In this Table, the higher numbers are the most preferred species. Pseudomonas alcaligenes (gram neg)

In experiment [4] the test system is Escherichia coli. The description is as above. The format is cell-based. On the set-up: key: 0 = growth equal to control, 1 = growth inhibited, 2 = no growth. The note with it: 100 ppm in tryptose agar. The procedure: Compositions were prepared by dissolving the compounds shown in Table 1 in 50% ethanol and further diluting with sterile distilled water. […] After cooling, the medium was inoculated with the bacteria listed below. After sufficient growth of the untreated cultures, the compounds were evaluated using the following rating system: 0=growth equal to control 1=inhibition of growth by the compound 2=no growth under the influence of the compound. In this Table, the higher numbers are the most preferred species. Escherichia coli ([…])

Experiment [5] concerns Streptomyces albus. The experiment is described as above. It is filed as cell-based. Conditions: 100 ppm in tryptose agar. On the set-up: key: 0 = growth equal to control, 1 = inhibition, 2 = no growth. The procedure:
Compositions were prepared by dissolving the compounds shown in Table 1 in 50% ethanol and further diluting with sterile distilled water. […] After cooling, the medium was inoculated with the bacteria listed below. After sufficient growth of the untreated cultures, the compounds were evaluated using the following rating system: 0=growth equal to control 1=inhibition of growth by the compound 2=no growth under the influence of the compound. In this Table, the higher numbers are the most preferred species. Streptomyces albus (gram pos)

Experiment [6] relates to Enterobacter aerogenes. Described as above. The format is cell-based. On the set-up: key: 0 = growth equal to control, 1 = inhibition, 2 = no growth. Conditions: 100 ppm in tryptose agar. The procedure:
Compositions were prepared by dissolving the compounds shown in Table 1 in 50% ethanol and further diluting with sterile distilled water. […] After cooling, the medium was inoculated with the bacteria listed below. After sufficient growth of the untreated cultures, the compounds were evaluated using the following rating system: 0=growth equal to control 1=inhibition of growth by the compound 2=no growth under the influence of the compound. In this Table, the higher numbers are the most preferred species. Enterobacter aerogenes (gram neg)

The test system of experiment [7] is Debaryomyces hansenii. The description is as above. The format is cell-based. On the set-up: key: 0 = growth equal to control, 1 = inhibition, 2 = no growth. The procedure: Compositions were prepared by dissolving the compounds shown in Table 1 in 50% ethanol and further diluting with sterile distilled water. […] After cooling, the medium was inoculated with the bacteria listed below. After sufficient growth of the untreated cultures, the compounds were evaluated using the following rating system: 0=growth equal to control 1=inhibition of growth by the compound 2=no growth under the influence of the compound. In this Table, the higher numbers are the most preferred species. Debaryomyces hansenii (yeast)

The subject of experiment [8] is Bacillus cereus mycoides. It is filed as cell-based. Further details: scale not given here.
Experiment [9] relates to mixed spore suspension: Aureobasidium pullulans, Aspergillus amstelodami, Ceratocystis pilifera, Cladosporium sp., Penicillium sp., Sclerophomas entoxylina …. Description: Control of molds and sapstain fungi in mini-board test. On the set-up: key to Surface score of treated mini-boards, 3 week incubation, 1500 ppm / Surface score of treated mini-boards, 3 week incubation, 2500 ppm: 0: Free of fungal growth; 1: Traces of fungal growth; 2: Little fungal growth; 3: Moderate fungal growth; 4: Vigorous to maximum growth (all surfaces covered with fungal growth).

In experiment [10] the test system is mixed spore suspension of blue-stain fungus and molds. Description: Activity against blue-stain fungi and molds in a mold cabinet test (BS3900: Part G6). The procedure:
Using the methods described in BS3900: Part G6: 1989, British Standard Methods of test for paints, “Assessment of resistance to fungal growth”, representative compounds of this invention were tested for activity against blue-stain fungus and molds in a mold cabinet test. In brief, sticks of Scots pine (Pinus sylvestris) measuring 75×100×10 mm, were painted, allowed to dry, and sterilized by […] (1.2 mRad). […] The sticks were then with each solution. The inoculation consisted of dipping the sticks in a mixed spore suspension, then placing them in a mold chamber and incubating them for 12 weeks. The surfaces were evaluated according the following score system: 0: No growth 1: […] 2: […] 3: […] 4. […] 5. Growth covering more than 70% of the inoculated test area.

Experiment [11] deals with blue-stain fungi and molds. Description: Activity against blue-stain fungi and molds on a stick test on vermiculite (paint film). The note with it: 12 weeks on vermiculite; for Surface score of wooden sticks treated with paint formulation, R rubra (y): R rubra (yeast). The procedure:
Beech sticks (73×18×2 mm) Fagus sylvatica were painted, allowed to dry, and sterilized by γ-radiation (1.2 mRad). […] The coated sticks prepared above were then dipped in a spore suspension of pure culture of each fungus. Seven sticks each were placed in autoclaved Petri dishes (200 mm in diameter, 30 mm in height) containing 300 ml of vermiculite and 120 ml of water, and incubated for 12 weeks. The surfaces of the sticks were then examined for the growth of fungus and were evaluated according to the following scoring system: 0: No growth 1: […] 2: […] 3: […] 4. […] 5. Growth covering more than 70t of the inoculated test area.

Turning to `C[S+]1CCON=C1c1ccc(Cl)cc1Cl` (stereo not drawn) [Compound 2], the “Score of bactericidal activity, P. aeruginosa” value (from here on “Score … P. aeruginosa”) in experiment [1] was 0. In addition, in experiment [2], the “Score of bactericidal activity, Flavobacter” value (from here on “Score … Flavobacter”) stood at 2. Besides, the “Score of bactericidal activity, P. alcalgenes” value (“Score … P. alcalgenes” below) in experiment [3] was 0. Also, in experiment [4], the “Score of bactericidal activity, E. Coli” value turned out to be 0. Further, the “Score of bactericidal activity, S. albus” value in [5] is recorded as 0. Moreover, in [6], the “Score of bactericidal activity, E. aerogenes” value (“Score … E. aerogenes” for short) is reported as 0. The “Score of bactericidal activity, D. hansenii” value (“Score … D. hansenii” for short) in [7] (10 ppm in tryptose agar) and in experiment [7] (100 ppm in tryptose agar) was 2 in each case. Also, the “Score of bactericidal activity, B. cereus mycoides” value (“Score … B. cereus mycoides” below) in [8] (10 ppm in tryptose agar) stood at 0; in experiment [8] (100 ppm in tryptose agar), 2.
In the case of `C[S+]1CCON=C1c1cccc(C(F)(F)F)c1` (stereo not drawn) [Compound 13], in [1], the “Score … P. aeruginosa” value is 0. The “Score … Flavobacter” value in [2] is on record as 2. In experiment [3], the “Score … P. alcalgenes” value is reported as 0. The “Score of bactericidal activity, E. Coli” value in experiment [4] was found to be 2. For the same compound, the “Score of bactericidal activity, S. albus” value in experiment [5] is listed as 2. Further, the “Score … E. aerogenes” value in [6] is reported as 0. Besides, the “Score … D. hansenii” value in experiment [7] (10 ppm in tryptose agar) and in experiment [7] (100 ppm in tryptose agar) was 2 each time. In addition, the “Score … B. cereus mycoides” value in experiment [8] (10 ppm in tryptose agar) and in experiment [8] (100 ppm in tryptose agar) was 2 throughout.
For the compound `C[S+]1CCON=C1c1c(Cl)cccc1Cl` (stereo not drawn) [Compound 15], the “Score … P. aeruginosa” value in experiment [1] is reported as 0. For the same compound, the “Score … Flavobacter” value in [2] worked out at 0. In addition, the “Score … P. alcalgenes” value in experiment [3] was found to be 0. The “Score of bactericidal activity, E. Coli” value in experiment [4] worked out at 0. The “Score of bactericidal activity, S. albus” value in experiment [5] stood at 0. In addition, in experiment [6], the “Score … E. aerogenes” value worked out at 0. The “Score … D. hansenii” value in experiment [7] (10 ppm in tryptose agar) was 0; in experiment [7] (100 ppm in tryptose agar), 1. Moreover, the figures for the “Score … B. cereus mycoides” value in experiment [8] (10 ppm in tryptose agar) and in [8] (100 ppm in tryptose agar) were 0 and 1, respectively.
For the compound `O=S1(=O)CCON=C1c1cc(Br)cs1` [Compound 42], in [9] (1500 ppm, 3 week incubation), the “Surface score of treated mini-boards, 3 week incubation, 1500 ppm” value is recorded as 0. Further, the “Surface score of treated mini-boards, 6 week incubation, 1500 ppm” value in experiment [9] (1500 ppm, 6 week incubation) turned out to be 2.0. Also, the “Surface score of treated mini-boards, 3 week incubation, 2500 ppm” value in experiment [9] (2500 ppm, 3 week incubation) is given as 0. Also, the “Surface score of treated mini-boards, 6 week incubation, 2500 ppm” value in experiment [9] (2500 ppm, 6 week incubation) worked out at 2.6. Moreover, in experiment [10] (0.15% in water-based paint), the “Surface score in a paint formulation in a mold cabinet test, 6 weeks” value turned out to be 1.5 and the “Surface score in a paint formulation in a mold cabinet test, 12 weeks” value is given as 3.5. Also, in experiment [10] (0.3% in water-based paint), the “Surface score in a paint formulation in a mold cabinet test, 6 weeks” value amounted to 0.5 and the “Surface score in a paint formulation in a mold cabinet test, 12 weeks” value turned out to be 3.0. In [11] (0.15% a.i. in paint), the “Surface score of wooden sticks treated with paint formulation, A. pullulans” value is 2 (Growth covering between 1 and 10% of the inoculated test area); the “Surface score of wooden sticks treated with paint formulation, A. versicolor” value is 2 (Growth covering between 1 and 10% of the inoculated test area); the “Surface score of wooden sticks treated with paint formulation, C. cladosporioides” value was 2 (Growth covering between 1 and 10% of the inoculated test area); the “Surface score of wooden sticks treated with paint formulation, P. purpurogenum” value was 4 (Growth covering between 30 and 70% of the inoculated test area). Moreover, in experiment [11] (0.15% a.i. in paint), the “Surface score of wooden sticks treated with paint formulation, P. violacea” value is 4 (Growth covering between 30 and 70% of the inoculated test area); the “Surface score of wooden sticks treated with paint formulation, R rubra (y)” value is 3 (Growth covering between 10 and 30% of the inoculated test area); the “Surface score of wooden sticks treated with paint formulation, S. chartarum” value is 3 (Growth covering between 10 and 30% of the inoculated test area); the “Surface score of wooden sticks treated with paint formulation, U. atrum” value was 5 (Growth covering more than 70t of the inoculated test area). Also, in experiment [11] (0.3% a.i. in paint), the “Surface score of wooden sticks treated with paint formulation, A. pullulans” value is recorded as 1 (Trace of growth of up to 1% coverage of the test inoculated area); the “Surface score of wooden sticks treated with paint formulation, A. versicolor” value is 1 (Trace of growth of up to 1% coverage of the test inoculated area); the “Surface score of wooden sticks treated with paint formulation, C. cladosporioides” value is listed as 1 (Trace of growth of up to 1% coverage of the test inoculated area); the “Surface score of wooden sticks treated with paint formulation, P. purpurogenum” value is 2 (Growth covering between 1 and 10% of the inoculated test area). Moreover, in experiment [11] (0.3% a.i. in paint), the “Surface score of wooden sticks treated with paint formulation, P. violacea” value is 3 (Growth covering between 10 and 30% of the inoculated test area); the “Surface score of wooden sticks treated with paint formulation, R rubra (y)” value is 1 (Trace of growth of up to 1% coverage of the test inoculated area); the “Surface score of wooden sticks treated with paint formulation, S. chartarum” value is 2 (Growth covering between 1 and 10% of the inoculated test area); the “Surface score of wooden sticks treated with paint formulation, U. atrum” value is 3 (Growth covering between 10 and 30% of the inoculated test area).
